Test results published in the Deep4Chem optical property database.
One block for each compound: values may come before it.

Test: photoluminescence quantum yield (fraction); solvent given as SMILES

SMILES: CCCCCCCCc1ccc(-n2c3c4ccccc4nnc3c3c2c2nnc4ccccc4c2n3-c2ccc(CCCCCCCC)cc2)cc1
- photoluminescence quantum yield (in Cc1ccccc1): 0

- photoluminescence quantum yield (in C1CCOC1): 0.89
- photoluminescence quantum yield (in CC#N): 0.85
- photoluminescence quantum yield (in ClC(Cl)Cl): 0.86
- photoluminescence quantum yield (in ClCCl): 0.86
SMILES: COc1cc(/C=C/c2nc3ccccc3o2)c(OC)cc1/C=C/c1nc(C)nc(C)n1

SMILES: CC[N+]1(CC)CN2C(=N1)C(C(=O)O)=Cc1cc(C)ccc12
- photoluminescence quantum yield (in O): 0.269

- photoluminescence quantum yield (in ClCCl): 0.74
SMILES: Cc1ccc(-c2cc(/C=C/c3ccc(N(c4ccccc4)c4ccccc4)cc3)c(-c3ccc(C)cc3)cc2/C=C/c2ccc(N(c3ccccc3)c3ccccc3)cc2)cc1

- photoluminescence quantum yield (in C1CCCCC1): 0.002
- photoluminescence quantum yield (in C1CCOC1): 0.009
- photoluminescence quantum yield (in CC#N): 0.004
- photoluminescence quantum yield (in CO): 0.002
- photoluminescence quantum yield (in CS(C)=O): 0.007
- photoluminescence quantum yield (in ClCCl): 0.004
- photoluminescence quantum yield (in O): 0.001
SMILES: CC1=N/C(=C\c2ccccc2N)C(=O)N1C

- photoluminescence quantum yield (in C1CCCCC1): 0.852
- photoluminescence quantum yield (in CCOC(C)=O): 0.733
- photoluminescence quantum yield (in CN(C)C=O): 0.562
- photoluminescence quantum yield (in CO): 0.428
- photoluminescence quantum yield (in ClCCl): 0.827
SMILES: CCN(CC)c1ccc2c(c1)oc(=O)c1c(C)nc3c(c(C)nn3-c3ccccc3)c12

- photoluminescence quantum yield (in ClCCl): 0.018
SMILES: C(S/C=C/c1ccc(/C=C/SC=C2CCCCCCC2)cc1)=C1CCCCCCC1

- photoluminescence quantum yield (in C1CCOC1): 0.3
- photoluminescence quantum yield (in ClCCl): 0.85
SMILES: O=P1(c2ccccc2)C(c2ccccc2)=Cc2ccccc21 (centres undefined)

- photoluminescence quantum yield (in C1CCCCC1): 0.98
- photoluminescence quantum yield (in CC#N): 0.013
- photoluminescence quantum yield (in CO): 0.011
- photoluminescence quantum yield (in ClC(Cl)Cl): 0.73
SMILES: CN(C)c1ccc(-c2ccc(-c3nc(C#N)c(C#N)n3C)cc2)cc1

SMILES: [C-]#[N+]c1ccc(-c2ccc(NC)cc2)cc1
- photoluminescence quantum yield (in C1CCCCC1): 0.74
- photoluminescence quantum yield (in C1CCOC1): 0.74
- photoluminescence quantum yield (in C1COCCO1): 0.77
- photoluminescence quantum yield (in CC#N): 0.88
- photoluminescence quantum yield (in CC(C)=O): 0.55
- photoluminescence quantum yield (in CCCCCC): 0.49
- photoluminescence quantum yield (in CCOC(C)=O): 0.63
- photoluminescence quantum yield (in CN(C)C=O): 0.49
- photoluminescence quantum yield (in CO): 0.65
- photoluminescence quantum yield (in CS(C)=O): 0.72
- photoluminescence quantum yield (in Cc1ccccc1): 0.59
- photoluminescence quantum yield (in ClC(Cl)Cl): 0.55
- photoluminescence quantum yield (in ClCCl): 0.85
- photoluminescence quantum yield (in O): 0.0087
- photoluminescence quantum yield (in c1ccncc1): 0.03

SMILES: Cc1cc2c(o1)=CC1=Cc3cc4oc(C)cc4n3[B-](F)(F)[N+]=21
- photoluminescence quantum yield (in C1CCOC1): 0.93
- photoluminescence quantum yield (in CC#N): 0.95
- photoluminescence quantum yield (in CCO): 0.97
- photoluminescence quantum yield (in CO): 0.96
- photoluminescence quantum yield (in Cc1ccccc1): 0.94
- photoluminescence quantum yield (in ClC(Cl)Cl): 0.96

- photoluminescence quantum yield (in C1CCCCC1): 0.094
- photoluminescence quantum yield (in CC#N): 0.0051
- photoluminescence quantum yield (in CCO): 0.00014
- photoluminescence quantum yield (in c1ccccc1): 0.063
SMILES: CNc1cccc2c1-c1ccccc1C2=O

- photoluminescence quantum yield (in C1CCCCC1): 0.0007
- photoluminescence quantum yield (in CC#N): 0.034
- photoluminescence quantum yield (in CCO): 0.002
SMILES: COc1ccc2c(c1)-c1ccccc1C2=O

SMILES: CC1=CC(c2ccc3cc(N(C)C)ccc3c2)=[O+][B-](F)(F)O1
- photoluminescence quantum yield (in C1CCOC1): 0.91
- photoluminescence quantum yield (in CC#N): 0.14
- photoluminescence quantum yield (in CC(C)=O): 0.53
- photoluminescence quantum yield (in CS(C)=O): 0.22
- photoluminescence quantum yield (in Cc1ccccc1): 0.93
- photoluminescence quantum yield (in ClC(Cl)Cl): 0.97
- photoluminescence quantum yield (in ClCCl): 0.99

SMILES: CCCCCCCC(=O)Oc1ccc2c3cccc4c(OC(=O)CCCCCCC)ccc(c5cccc1c52)c43
- photoluminescence quantum yield (in C1CCOC1): 0.97
- photoluminescence quantum yield (in Cc1ccccc1): 0.97
- photoluminescence quantum yield (in ClC(Cl)(Cl)Cl): 0.06
- photoluminescence quantum yield (in ClC(Cl)Cl): 0.91
- photoluminescence quantum yield (in ClCCl): 0.8
- photoluminescence quantum yield (in c1ccncc1): 0.93

- photoluminescence quantum yield (in CS(C)=O): 0.03
SMILES: CCCCN1/C(=C/C=C/C2=[N+](C)c3ccccc3C2(C)C)C(C)(C)c2cc(OC)ccc21

SMILES: CC(C)[Si]1(C(C)C)c2cc(C#N)ccc2-c2ccc(N(C)C)cc21
- photoluminescence quantum yield (in C1CCCCC1): 0.6
- photoluminescence quantum yield (in CC#N): 0.65
- photoluminescence quantum yield (in CCO): 0.74
- photoluminescence quantum yield (in CCOCC): 0.66
- photoluminescence quantum yield (in CS(C)=O): 0.51
- photoluminescence quantum yield (in ClCCl): 0.79
- photoluminescence quantum yield (in c1ccccc1): 0.62

- photoluminescence quantum yield (in CS(C)=O): 0.12
SMILES: CCCCN1/C(=C/C=C/C2=[N+](C)c3ccccc3C2(C)C)C(C)(C)c2cc(Br)ccc21

SMILES: CCN1C(=O)C(C2C(=O)c3c4ccccc4cc4cc5ccccc5c2c34)C(=O)N(CC)C1=S (centres undefined)
- photoluminescence quantum yield (in C1CCOC1): 0.205
- photoluminescence quantum yield (in CCCCCC): 0.316
- photoluminescence quantum yield (in Cc1ccccc1): 0.052
- photoluminescence quantum yield (in ClCCl): 0.237

SMILES: CC1=CC(C)=[N+]2C1=C(c1ccc(-c3ccc(OS(=O)(=O)c4ccc([N+](=O)[O-])cc4[N+](=O)[O-])cc3)s1)c1c(C)cc(C)n1[B-]2(F)F
- photoluminescence quantum yield (in Cc1ccccc1): 0.066

- photoluminescence quantum yield (in CC#N): 0.25
- photoluminescence quantum yield (in CCO): 0.12
- photoluminescence quantum yield (in CO): 0.06
- photoluminescence quantum yield (in O): 0.02
SMILES: CCCC(=O)c1c2c(c(C(=O)CCC)c3c1OC(CC(=O)OC)(C(=O)O)O3)OCO2

SMILES: COc1cc2c3c4c(c5ccc(C(C)(C)C)cc5c5cc(C(C)(C)C)cc(c2c(OC)c1OC)c45)=[N+]1C3=Nc2c3c4cc(OC)c(OC)c(OC)c4c4cc(C(C)(C)C)cc5c6cc(C(C)(C)C)ccc6c(c3c54)n2[B-]1(F)F
- photoluminescence quantum yield (in Cc1ccccc1): 0.07

SMILES: Fc1c(-c2nnc(-c3ccccc3)o2)c(-n2c3ccccc3c3ccccc32)c(F)c(-n2c3ccccc3c3ccccc32)c1-n1c2ccccc2c2ccccc21
- photoluminescence quantum yield (in Cc1ccccc1): 0.2

- photoluminescence quantum yield (in ClCCl): 0.485
SMILES: Cc1cc2oc3ccccc3c2c2[nH]c3ccccc3c12

- photoluminescence quantum yield (in CC1CCCCC1): 0.49
- photoluminescence quantum yield (in CC#N): 0.46
- photoluminescence quantum yield (in CO): 0.48
SMILES: COC(=O)C(NC(=O)OC(C)(C)C)c1ccc2oc(-c3ccc(F)cc3)nc2c1 (centres undefined)

SMILES: CCN(CC)c1ccc2cc(-c3cc(SC)c(C#N)c(=O)o3)c(=O)oc2c1
- photoluminescence quantum yield (in C1CCOC1): 0.72
- photoluminescence quantum yield (in CC#N): 0.56
- photoluminescence quantum yield (in CC(C)=O): 0.67
- photoluminescence quantum yield (in CCOC(C)=O): 0.8
- photoluminescence quantum yield (in CN(C)C=O): 0.4
- photoluminescence quantum yield (in CO): 0.55
- photoluminescence quantum yield (in CS(C)=O): 0.55
- photoluminescence quantum yield (in Cc1ccccc1): 0.72
- photoluminescence quantum yield (in ClC(Cl)Cl): 0.66
- photoluminescence quantum yield (in ClCCl): 0.81

- photoluminescence quantum yield (in ClCCl): 0.06
SMILES: CN(C)c1ccc(-c2cc(-c3ccccc3)nn2C)cc1

- photoluminescence quantum yield (in ClCCl): 0.45
SMILES: CCCCCCCCOc1ccc(C#Cc2ccc3oc4ccccc4c3c2)c(OCCCCCCCC)c1

SMILES: CCCCCCCCN1c2ccccc2Sc2cc(/C=C/c3ccc(N(c4ccc(/C=C/c5ccc6c(c5)Sc5ccccc5N6CCCCCCCC)cc4)c4ccc(/C=C/c5ccc(/C=C/c6ccc(N(c7ccc(/C=C/c8ccc(N(c9ccccc9)c9ccccc9)cc8)cc7)c7ccc(/C=C/c8ccc(N(c9ccccc9)c9ccccc9)cc8)cc7)cc6)c6nsnc56)cc4)cc3)ccc21
- photoluminescence quantum yield (in C1CCOC1): 0.031
- photoluminescence quantum yield (in CCOC(C)=O): 0.062
- photoluminescence quantum yield (in CN(C)C=O): 0.001
- photoluminescence quantum yield (in Cc1ccccc1): 0.349
- photoluminescence quantum yield (in ClC(Cl)Cl): 0.06
- photoluminescence quantum yield (in ClCCl): 0.003

- photoluminescence quantum yield (in CO): 0.28
SMILES: Cc1ccc(-c2nc(-c3ccccc3O)[nH]c2-c2ccc(C)cc2)cc1

- photoluminescence quantum yield (in ClCCl): 0.004
SMILES: c1ccc(C2=C(c3ccccn3)[Si](c3ccccc3)(c3ccccc3)c3ccccc32)cc1

SMILES: c1cc2c3c(c1)-c1cccc4cccc(c14)B3c1cccc3cccc-2c13
- photoluminescence quantum yield (in Cc1ccccc1): 0.9

SMILES: Cc1ccc(-n2c(-c3ccccc3[N-]S(=O)(=O)c3ccc(C)cc3)[nH+]c3c4ccccc4c4ccccc4c32)cc1
- photoluminescence quantum yield (in Cc1ccccc1): 0.468

- photoluminescence quantum yield (in ClCCl): 0.76
SMILES: CN(C)c1ccc(C2=C3C=C(c4ccc(C#N)cc4)S[C@]34c3ccccc3[C@H]2c2ccccc24)cc1

- photoluminescence quantum yield (in C1CCCCC1): 0.05
- photoluminescence quantum yield (in C1CCOC1): 0.1
- photoluminescence quantum yield (in CN(C)C=O): 0.13
- photoluminescence quantum yield (in CO): 0.23
- photoluminescence quantum yield (in ClC(Cl)Cl): 0.17
- photoluminescence quantum yield (in c1ccccc1): 0.12
SMILES: CC1(C)CCc2c(c3ccccc3c3nc4ccccc4nc23)O1

- photoluminescence quantum yield (in CC#N): 0.095
- photoluminescence quantum yield (in c1ccccc1): 0.077
SMILES: COc1ccc(-c2cc(-c3ccc(OC)cc3)c3c(N)nc(N4CCCC4)c(C#N)c3n2)cc1

- photoluminescence quantum yield (in ClCCl): 0.79
SMILES: FC(F)(F)c1ccccc1B1c2ccccc2N(c2ccccc2)c2ccccc21

- photoluminescence quantum yield (in ClCCl): 0.5
SMILES: COc1ccc(-c2ccc(-c3cc(-c4ccccn4)nc(-c4ccccn4)c3)cc2)cc1

- photoluminescence quantum yield (in c1ccccc1): 0.054
SMILES: CCOC(=O)c1sc2nc(C)c(CC)c(C#N)c2c1N

- photoluminescence quantum yield (in ClCCl): 0.94
SMILES: CCN(CC)c1ccc2cc(-c3nc4ccccc4n3-c3ccccc3)c(=O)oc2c1

SMILES: COC(=O)/C(C#N)=c1\s/c(=c2/s/c(=C(/C#N)C(=O)OC)c3cc(-c4ccc(C)cc4)sc23)c2sc(-c3ccc(C)cc3)cc12
- photoluminescence quantum yield (in Cc1ccccc1): 0.325

SMILES: CC1(C)c2ccccc2-n2c(-c3ccc(N4c5ccccc5Sc5ccccc54)cc3)nc3cccc1c32
- photoluminescence quantum yield (in Cc1ccccc1): 0.08
- photoluminescence quantum yield (in O=P(c1ccccc1)(c1ccccc1)c1ccccc1Oc1ccccc1P(=O)(c1ccccc1)c1ccccc1): 0.05

SMILES: CCCCCCC(CCCCCC)N1C(=O)c2cccc3c(-c4ccc([Si](C)(C)C)cc4)ccc(c23)C1=O
- photoluminescence quantum yield (in CCCCCC): 0.14
- photoluminescence quantum yield (in CCCCCCCCCCCCCC): 0.18
- photoluminescence quantum yield (in CCCCCCCCCCCO): 0.85
- photoluminescence quantum yield (in CCCCO): 0.89
- photoluminescence quantum yield (in CN(C)C=O): 0.64
- photoluminescence quantum yield (in Cc1ccccc1): 0.51
- photoluminescence quantum yield (in ClC(Cl)Cl): 0.79

- photoluminescence quantum yield (in C1CCOC1): 0.29
SMILES: CCN(CC)c1ccc(C(=C(c2ccc(B(c3c(C)cc(C)cc3C)c3c(C)cc(C)cc3C)cc2)c2ccc(B(c3c(C)cc(C)cc3C)c3c(C)cc(C)cc3C)cc2)c2ccc(N(CC)CC)cc2)cc1

SMILES: Cc1cc(C)c(C2=C3C=C(c4ccccc4)C(c4ccccc4)=[N+]3[B-](F)(F)n3c2cc(-c2ccccc2)c3-c2ccccc2)c(C)c1
- photoluminescence quantum yield (in C1CCCCC1): 0.94
- photoluminescence quantum yield (in C1CCOC1): 0.9
- photoluminescence quantum yield (in CC#N): 0.87
- photoluminescence quantum yield (in Cc1ccccc1): 0.75
- photoluminescence quantum yield (in ClCCl): 0.74

- photoluminescence quantum yield (in ClC(Cl)Cl): 0.113
SMILES: c1ccc(-c2nc(-c3ccccn3)[se]c2N(c2ccccc2)c2ccccc2)cc1

- photoluminescence quantum yield (in C1CCOC1): 0.61
- photoluminescence quantum yield (in CN(C)C=O): 0.19
SMILES: O=C(O)c1ccc(C(=O)O)c2cc3ccccc3cc12

SMILES: O=C1c2ccc(N(c3ccccc3)c3ccccc3)cc2C(=O)c2ccc(N(c3ccccc3)c3ccccc3)cc21
- photoluminescence quantum yield (in Cc1ccccc1): 0.2
- photoluminescence quantum yield (in c1ccc2c(c1)c1ccccc1n2-c1ccc(-c2ccc(-n3c4ccccc4c4ccccc43)cc2)cc1): 0.5

- photoluminescence quantum yield (in C1CCCCC1): 0.12
- photoluminescence quantum yield (in CC#N): 0.5
SMILES: C=Cc1cc(OC)cc(OC)c1
